Test results from patent publication US12150929B2, “Compositions and methods for the treatment of depression” (Janssen Pharmaceuticals, Inc., priority 2021, dated 2024).
Like-named read-outs stand apart in the source and are kept apart here.

What was measured:
[1] = Maximum plasma concentration (Cmax) of aticaprant, Example 1; assay type: in vivo; conditions: human, oral, 10 mg, eITT, read-out: Cmax, Arithmetic Mean (SD)
Experimental: Aticaprant was supplied as 5-mg capsules. Placebo was supplied as matching capsules. All subjects took 2 capsules QD. The capsules were taken daily from Day 2 to Day 78 in fasting condition with some water (fasting for at least 4 hours before dosing). Medication was taken before breakfast. If the subject has forgotten to take the medication before breakfast, this was done before the next following meal, at the latest at dinner of the same day. If the subject remembered later than dinner, the dose of that day was omitted, and the subject took the dose before breakfast on the next day.
Cmax is defined as maximum plasma concentration of aticaprant. […] Here ‘N’ (number of subjects analyzed) includes the number of subjects evaluable for this endpoint. Here ‘n’ (number analyzed) included all subjects evaluable for specified time point categories.

[2] = Weight change, Example 1; assay type: in vivo, human
Experimental: Treatment with aticaprant as described herein has several advantages over the treatments in the art. […] As used herein, the term “weight gain” refers to an increase in the weight of patient, relative to the weight of the patient before taking aticaprant or the weight of the patient that is assessed at the time of the initial administration of the aticaprant. In certain embodiments, the patient may actually see a decrease in overall weight, relative to the weight of the patient before taking aticaprant.
At the lead-in baseline timepoint, the mean weight for subjects in the placebo group was 76.17 kg compared to 78.66 in the aticaprant group. After 6 weeks in the double-blind treatment phase, the mean weight in the placebo group was 75.75 kg compared to 78.57 kg in the aticaprant group. […] This is unexpected because other adjunctive treatments for MDD result in a mean weight increase. See, Thase M, et al. J Clin Psych. 2015: 76(9), 1224-1231; Thase, J Clin Psych. 2015, 76(9): 1232-1240; El Khalili, Int J Neuropsychopharmacol. 2010, 13, 917-932; Marcus, J. Clin. Psychopharmacol. […] Nashville, Tenn, ACNP, 2008; Earley, American College of Neuropsychopharmacology, 2007, Annual Meeting Abstracts (Boca Raton, Fla, Dec. 9-13, 2007). Nashville, TN, ACNP, 2007). See, Table 29.

`Cc1cc(C)cc(C2CCCN2Cc2ccc(Oc3ccc(C(N)=O)cc3F)cc2)c1` (centres unmarked) [aticaprant, 3-fluoro-4-4-2-(3,5-dimethylphenyl)pyrrolidin-1-yl-methylphenoxybenzamide] gave a Cmax ([1]; Week 1 (n = 56)) of 32.7 ± 10.9 ng/mL, a Cmax ([1]; Week 3 (n = 56)) of 33.5 ± 11.1 ng/mL and a Cmax ([1]; Week 6 (n = 56)) of 34.3 ± 11.1 ng/mL. For the same molecule, the “Mean weight, Lead-in Baseline, mean (SE)” value ([2]; Lead-in Baseline, n = 85) was 78.66 (1.65) kg, the “Mean weight, Screening, mean (SE)” value ([2]; Screening, n = 85) was 78.42 (1.65) kg and the “Mean weight, Withdrawal Baseline, mean (SE)” value ([2]; Withdrawal Baseline (after 6 weeks double-blind treatment), n = 85) was 78.57 (1.71) kg. The “Mean weight, Relative % Change” value ([2]; Withdrawal vs Lead-in, n = 85) was −0.11%, the mean weight ([2]; after 6 weeks in the double-blind treatment phase) was 78.57 kg and the “weight over the 6-week double blind treatment period” value ([2]; both groups) was “remained relatively stable”. For the same molecule, the mean weight ([2]; lead-in baseline timepoint) was 78.66 kg and the “Mean weight, Absolute Change (Withdrawal − Lead-in)” value ([2]; n = 85) was -0.09 kg.
